Test results reported in patent publication US11130741B2 (Bioimics AB, priority 2016, dated 2021).
In brackets after ≈: the same amount, converted by molar mass. Like-named read-outs stand apart in the source and are kept apart here.

Columns and labels:
K. pneumoniae ATCC 43816 = experiment: MIC, K. pneumoniae ATCC 43816; assay type: cell-based; conditions: Klebsiella pneumoniae, ATCC43816
E. coli JW5503 = experiment: MIC, E. coli JW5503; assay type: cell-based; conditions: Escherichia coli, JW5503, read-out: MIC E. coli JW5503
S. pneumoniae ATCC 49619 = experiment: MIC, S. pneumoniae ATCC 49619; assay type: cell-based; conditions: Streptococcus pneumoniae, ATCC49619
[1] = test system: Staphylococcus aureus (ATCC25923); experiment: MIC, broth microdilution (CLSI), Staphylococcus aureus ATCC25923
Method: Initial minimal inhibitory concentration (MIC) tests were made on two bacterial strains: • Escherichia coli (ATCC25922) • Staphylococcus aureus (ATCC25923).
Minimal Inhibitory Concentration (MIC)
MIC values were determined using the standard broth microdilution procedure based on the guidelines by the Clinical and Laboratory Standards Institute (CLSI). Briefly, the compounds were dissolved in DMSO to 10 mM. They were diluted in cation-adjusted Mueller-Hinton broth (CAMHB) to four times the highest concentration tested. A serial 2-fold dilution in CAMHB was done in microdilution plates. The inoculum of bacterial strain to be tested was prepared by making a suspension of colonies from an 18 to 24 hours old plate in CAMHB. The inoculum was diluted so that, after inoculation, each well contained approximately 5×10^5 CFU/mL. To a volume of 50 μl compound in CAMHB an equal volume of inoculum was added. The tray was sealed in a plastic bag and incubated at 35° C. for 16 to 20 hours. To aid in the detection of growth the dye resazurin was added to a final concentration 0.001% and incubated at room temperature for 1 h. Reduction of resazurin, and therefore bacterial growth, was seen as a change from blue to pink.

[2] = test system: E. coli RNase P RNA, M1 RNA; experiment: Inhibition of bacterial RNase P activity, IC50 determination (cleavage of pATSerUG by M1 RNA); assay type: biochemical; conditions: NI = No inhibition
[3] = test system: S. aureus MRSA ATCC 33591; experiment: MIC, S. aureus MRSA ATCC 33591; assay type: cell-based
A. baumannii ATCC 17978 = experiment: MIC, A. baumannii ATCC 17978; assay type: cell-based; conditions: Acinetobacter baumannii, ATCC17978
[4] = test system: Staphylococcus aureus subsp. aureus (ATCC29213); experiment: MIC, broth microdilution (CLSI), Staphylococcus aureus subsp. aureus ATCC29213; assay type: cell-based
[5] = test system: Escherichia coli (ATCC25922); experiment: MIC, broth microdilution (CLSI), Escherichia coli ATCC25922
N. gonorrhoeae 612501 = experiment: MIC, N. gonorrhoeae 612501; assay type: cell-based; conditions: Neisseria gonorrhoeae
E. faecium ATCC 700221 = experiment: MIC, E. faecium ATCC 700221; assay type: cell-based
S. aureus ATCC 29213 = experiment: MIC, S. aureus ATCC 29213 + 50% HS; assay type: cell-based; conditions: Staphylococcus aureus, ATCC29213
[6] = test system: P. aeruginosa NTUH-974 (MDR); experiment: MIC, P. aeruginosa NTUH-974 (MDR); assay type: cell-based; conditions: Pseudomonas aeruginosa, read-out: MIC P. aeruginosa NTUH-974 (MDR)
H. influenzae ATCC 49247 = experiment: MIC, H. influenzae ATCC 49247; assay type: cell-based; conditions: Haemophilus influenzae, ATCC49247
[7] = test system: Enterococcus faecalis (ATCC29212); experiment: MIC, broth microdilution (CLSI), Enterococcus faecalis ATCC29212; assay type: cell-based; conditions: read-out: MIC E. faecalis ATCC 29212
[8] = test system: Pseudomonas aeruginosa (ATCC27853); experiment: microbe, parasite or virus in culture; assay type: cell-based; conditions: read-out: MIC P. aeruginosa ATCC 27853
[9] = ATCC25923, read-out: S. aureus ("Clinical") MIC
[10] = Staphylococcus aureus; read-out: MIC S. aureus MRSA ATCC 33591
[11] = ATCC29213, Table 16, read-out: MIC S. aureus ATCC 29213
[12] = ATCC25922, read-out: E. coli MIC, Table 15, NI = No inhibition
[13] = ATCC25922, read-out: MIC E. coli ATCC 25922, Table 16
[14] = Enterococcus faecium, ATCC700221; read-out: MIC E. faecium ATCC 700221
[15] = ATCC29213, Table 15, read-out: S. aureus ("wound") (MIC)

| Compound | MIC (K. pneumoniae ATCC 43816) | MIC (E. coli JW5503) | MIC (S. pneumoniae ATCC 49619) | MIC [1, 9] | IC50 [2] | MIC (A. baumannii ATCC 17978) | MIC [4, 11] | MIC [5, 12] | MIC (N. gonorrhoeae 612501) | MIC (S. aureus ATCC 29213) | MIC [6] | MIC (H. influenzae ATCC 49247) | MIC [7] | MIC [8] | MIC [4, 15] | also measured |
| --- | --- | --- | --- | --- | --- | --- | --- | --- | --- | --- | --- | --- | --- | --- | --- | --- |
| NCCCN1c2ccccc2Sc2cc(-c3cc4ccccc4[nH]3)ccc21 [compound 150, 3-(3-(1H-Indol-2-yl)-10H-phenothiazin-10-yl)propan-1-amine] | 16 µg/mL (≈ 43.1 µM) | 4 µg/mL (≈ 10.8 µM) | 8 µg/mL (≈ 21.5 µM) | 1 µg/mL (≈ 2.69 µM) | 14 µM | 16 µg/mL (≈ 43.1 µM) | 2 µg/mL (≈ 5.38 µM) | 12 µg/mL (≈ 32.3 µM) | 2 µg/mL (≈ 5.38 µM) | 64 µg/mL | > 128 µg/mL | 8 µg/mL (≈ 21.5 µM) | 2 µg/mL (≈ 5.38 µM) | > 128 µg/mL | – | MIC [3, 10]: 2 µg/mL (≈ 5.38 µM); MIC [5, 13]: 16 µg/mL (≈ 43.1 µM); MIC (E. faecium ATCC 700221; [14]): 2 µg/mL (≈ 5.38 µM) |
| N#Cc1ccc2c(c1)Sc1cc(C(F)(F)F)cc(NC3CCN(CCN)CC3)c1N2 [compound 217, 9-((1-(2-Aminoethyl)piperidin-4-yl)amino)-7-(trifluoromethyl)-10H-phenothiazine-3-carbonitrile] | – | – | – | 2 µg/mL (≈ 4.61 µM) | 10 µM | – | – | 3 µg/mL (≈ 6.92 µM) | – | – | – | – | – | – | 4 µg/mL (≈ 9.23 µM) | – |
| CN(C)CCCN1c2ccccc2Sc2cc(-c3cc4ccccc4[nH]3)ccc21 [compound 111, 3-(3-(1H-Indol-2-yl)-10H-phenothiazin-10-yl)-N,N-dimethylpropan-1-amine] | > 128 µg/mL | 4 µg/mL (≈ 10 µM) | 8 µg/mL (≈ 20 µM) | 3 µg/mL (≈ 7.51 µM) | ~20 µM | 64 µg/mL (≈ 160 µM) | 2 µg/mL (≈ 5.01 µM) | > 100 µg/mL | 2 µg/mL (≈ 5.01 µM) | 128 µg/mL | > 128 µg/mL | 16 µg/mL (≈ 40 µM) | 4 µg/mL (≈ 10 µM) | > 128 µg/mL | 3 µg/mL (≈ 7.51 µM) | MIC [3, 10]: 4 µg/mL (≈ 10 µM); MIC [5, 13]: 64 µg/mL (≈ 160 µM); MIC (E. faecium ATCC 700221; [14]): 2 µg/mL (≈ 5.01 µM) |
| COC(=O)c1ccc2c(c1)Sc1cc(C(F)(F)F)cc(NC3CCN(CCN)CC3)c1N2 [compound 247, Methyl 9-((1-(2-aminoethyl)piperidin-4-yl)amino)-7-(trifluoromethyl)-10H-phenothiazine-3-carboxylate] | – | – | – | 4 µg/mL (≈ 8.57 µM) | 16 µM | – | – | 4 µg/mL (≈ 8.57 µM) | – | – | – | – | – | – | 8 µg/mL (≈ 17.1 µM) | – |
| NCCNC(=O)c1ccc2c(c1)Sc1cc(C(F)(F)F)cc(NC3CCN(CCN)CC3)c1N2 [compound 255, N-(2-aminoethyl)-9-((1-(2-aminoethyl)piperidin-4-yl)amino)-7-(trifluoromethyl)-10H-phenothiazine-3-carboxamide trifluroroacetic acid] | 128 µg/mL (≈ 259 µM) | 16 µg/mL (≈ 32.4 µM) | 64 µg/mL (≈ 129 µM) | – | – | 128 µg/mL (≈ 259 µM) | 8 µg/mL (≈ 16.2 µM) | – | 16 µg/mL (≈ 32.4 µM) | 64 µg/mL | 64 µg/mL (≈ 129 µM) | 64 µg/mL (≈ 129 µM) | 16 µg/mL (≈ 32.4 µM) | 128 µg/mL (≈ 259 µM) | 8 µg/mL (≈ 16.2 µM) | MIC ([1]; ATCC25923, read-out: S. aureus ("Clinical") MIC, Table 15): 2 µg/mL (≈ 4.04 µM); MIC ([3]; Staphylococcus aureus, read-out: MIC S. aureus MRSA ATCC 33591): 16 µg/mL (≈ 32.4 µM); MIC ([5]; ATCC25922, read-out: E. coli MIC): 39 µg/mL (≈ 78.9 µM); MIC ([5]; ATCC25922, read-out: MIC E. coli ATCC 25922): 64 µg/mL (≈ 129 µM); MIC (E. faecium ATCC 700221; Enterococcus faecium, ATCC700221, read-out: MIC E. faecium ATCC 700221): 32 µg/mL (≈ 64.7 µM) |
| FC(F)(F)c1cc(NC2CCNCC2)c2c(c1)Sc1ccccc1N2 [compound 141, N-(piperidin-4-yl)-3-(trifluoromethyl)-10H-phenothiazin-1-amine] | – | – | – | 3 µg/mL (≈ 8.21 µM) | 12 µM | – | – | 12 µg/mL (≈ 32.8 µM) | – | – | – | – | – | – | 6 µg/mL (≈ 16.4 µM) | – |
| CN(C)CCCN1c2ccccc2Sc2cc(-c3cc4ccccc4n3CCN)ccc21 [compound 136, 3-(3-(1-(2-aminoethyl)-1H-indol-2-yl)-10H-phenothiazin-10-yl)-N,N-dimethylpropan-1-amine] | – | – | – | 7 µg/mL (≈ 15.8 µM) | 37 µM | – | – | 7 µg/mL (≈ 15.8 µM) | – | – | – | – | – | – | 16 µg/mL (≈ 36.1 µM) | – |
| NC1CCCC(C(=O)Nc2cc(C(F)(F)F)cc3c2Nc2ccccc2S3)C1 (stereo not drawn) [compound 105, 3-Amino-N-(3-(trifluoromethyl)-10H-phenothiazin-1-yl)cyclohexanecarboxamide] | – | – | – | 26 µg/mL (≈ 63.8 µM) | 15 µM | – | – | 52 µg/mL (≈ 128 µM) | – | – | – | – | – | – | 32 µg/mL (≈ 78.5 µM) | – |
